The text below walks through data of patent US5149704A, “Platelet activating antagonists” (Abbott Laboratories, priority 1991, dated 1992).

Where a name gives a salt, the structure may show the parent alone.

T1 sequence (G1TEI7 1-342): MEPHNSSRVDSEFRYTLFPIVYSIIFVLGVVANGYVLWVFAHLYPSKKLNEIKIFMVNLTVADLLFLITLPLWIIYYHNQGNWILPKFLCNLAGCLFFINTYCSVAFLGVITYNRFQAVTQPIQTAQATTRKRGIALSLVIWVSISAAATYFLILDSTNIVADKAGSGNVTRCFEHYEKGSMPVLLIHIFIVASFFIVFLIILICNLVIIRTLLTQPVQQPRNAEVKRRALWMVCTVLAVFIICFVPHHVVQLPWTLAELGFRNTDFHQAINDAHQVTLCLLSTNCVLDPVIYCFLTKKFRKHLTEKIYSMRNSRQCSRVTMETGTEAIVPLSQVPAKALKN

The test concerns the target T1, PAF receptor (Oryctolagus cuniculus, UniProt G1TEI7).
T1 construct: platelet membranes were prepared by centrifugation and washing; tissue Pel-Freez (Rogers, AR); host or cells: rabbit platelets from citrated whole blood (membranes)
The test is described as follows: PAF receptor binding assay ([^3 H]C18 -PAF, rabbit platelet membranes). The settings on record: 0.6 nM [^3 H]C18 -PAF, 60 min, 22-23 °C, Ki from IC50 by Cheng and Prusoff. The protocol: The ability of representative compounds of the present invention to inhibit PAF activity was determined in an in vitro test using the following method. Citrated whole rabbit blood was obtained from Pel-Freez (Rogers, AR). Rabbit platelets were prepared by centrifugation and washing. The platelets were lysed by freeze-thawing and sonication; platelet membranes were prepared by centrifugation and washing. Final membrane preparations were stored frozen in 10 mM Tris/5 mM MgCl2 /2 mM EDTA (TME buffer, pH 7.0) with 0.25M sucrose added for membrane stabilization. […] The final volume of the assay was 100 μl. The assay was conducted in […] (Millipore Corp.) filtration plates; incubation time was for 60 minutes at room temperature (22°-23° C.). "Specific binding" was operationally defined as the arithmetic difference between "total binding" of 0.6 nM [^3 H]C18 -PAF (in the absence of added PAF) and "nonspecific binding" (in the presence of 1 μM PAF). After the prescribed incubation, platelet membranes were filtered under vacuum, and washed with 1 millilitre of "binding buffer". The filters were dried and removed. The bound radioactivity was quantitated with a Berthold TLC-Linear Analyzer model LB2842. Dose-response curves of inhibition of specific [^3 H]C18 -PAF binding by test compounds were conducted in triplicate, with at least four doses covering the active range. Experiments were repeated at least once. IC50 values (concentration producing 50% inhibition) were determined by point-to-point evaluation. Ki values of inhibitory binding constants were calculated according to the method of Cheng and Prusoff [Biochem. Pharmacol. 22 (1973) 3099-3108] whereby [formula] The values of Ki for representative compounds of the present invention appear in Table 1.
As to `c1ccc(Oc2ccc(NCC3CSC(c4cccnc4)N3)cc2)cc1` (stereo not drawn) [Example 8, N-(4-phenoxyphenyl)2-(3-pyridinyl)thiazolid-4-ylmethylamine], the Ki turned out to be 190 nM.

Compound `COc1cc(C(=O)c2cccc(NC[C@H]3CC[C@H](c4cccnc4)N3)c2)cc(OC)c1OC` (relative stereo) [13 (trans), N-[3-(3,4,5-trimethoxybenzoyl)phenyl][2-(3-pyridyl)-pyrrolidin-5-yl]methylamine] returned a Ki of 8700 nM.

The compound `O=C(c1ccccc1)c1cccc(NCC2CSC(c3cccnc3)N2)c1` (stereo not drawn) [Example 4, N-(3-benzoylphenyl)2-(3-pyridinyl)thiazolid-4-ylmethylamine] gave a Ki of 23 nM.

On to `CN1C(CNc2cccc(C(=O)c3ccccc3)c2)CSC1c1cccnc1` (stereo not drawn) [Example 9, N-(3-benzoylphenyl)[2-(3-pyridinyl)-3-methylthiazolid-4-yl]methylamine dihydrochloride], for which the Ki stood at 1400 nM.

Compound `COc1cc(C(=O)c2cccc(NCC3CSC(c4cccnc4)N3)c2)cc(OC)c1OC` (stereo not drawn) [Example 2, N-[3-(3,4,5-trimethoxybenzoylphenyl]2-(3-pyridinyl)thiazolid-4-ylmethylaminetrihydrochloride] yielded a Ki of 10 nM.

Regarding `O=C(c1ccccc1)c1cccc(NCC2CSC(c3cccnc3)N2)c1` (stereo not drawn) [Example 5, N-(3-benzoylphenyl)2-(3-pyridinyl)thiazolid-4-ylmethylamine trihydrochloride], the affinity corresponds to a Ki of 38 nM.

With `CN(CC1CSC(c2cccnc2)N1)c1cccc(C(=O)c2ccccc2)c1` (stereo not drawn) [Example 12, N-(3-benzoylphenyl) N-methyl 2-(3-pyridinyl)thiazolid-4-ylmethylamine trihydrochloride], the affinity, expressed as Ki, was 3400 nM.

For the compound `COc1cc(C(=O)c2cccc(NC(=O)NCC3CSC(c4cccnc4)N3)c2)cc(OC)c1OC` (stereo not drawn) [Example 14, N-[2-(3-pyridinyl)thiazolid-4-ylmethyl]-N'-[3-(3,4,5-trimethoxybenzoyl)phenyl]urea], affinity was put at a Ki of 110 nM.

Consider `O=C(c1ccccc1)c1ccc(NCC2CSC(c3cccnc3)N2)cc1` (stereo not drawn) [Example 7, N-(4-benzoylphenyl)2-(3-pyridinyl)thiazolid-4-ylmethylamine], for which the affinity corresponds to a Ki of 1200 nM.

On to “N-[3-(3,4,5-trimethoxybenzoylphenyl]2-(3-pyridinyl)dithiolan-4-ylmethylamine dihydrochloride [Example 10]”, for which the Ki came to 900 nM.

`O=C(c1ccccc1)c1ccccc1NCC1CSC(c2cccnc2)N1` (stereo not drawn) [Example 6, N-(2-benzoylphenyl)2-(3-pyridinyl)thiazolid-4-ylmethylamine] registered a Ki of 430 nM.

Consider `O=C(c1ccccc1)c1cccc(NCC2CSC(c3cccnc3)S2)c1` (stereo not drawn) [Example 11, N-(3-benzoylphenyl)2-(3-pyridinyl)dithiolan-4-ylmethylamine], for which the Ki was 160 nM.

Compound `O=C(NCC1CSC(c2cccnc2)N1)Nc1cccc(C(=O)c2ccccc2)c1` (stereo not drawn) [Example 15, N-[2-(3-pyridinyl)thiazolid-4-ylmethyl]N'-(3-benzoylphenyl)urea dihydrochloride] came in with an inhibition constant Ki of 150 nM.

Regarding `O=C(NCC1CSC(c2cccnc2)S1)Nc1cccc(C(=O)c2ccccc2)c1` (stereo not drawn) [Example 16, N-[2-(3-pyridinyl)dithiolan-4-ylmethyl]N'-(3-benzoylphenyl)urea], the affinity corresponds to a Ki of 750 nM.

In turn, `CC(C)(C)OC(=O)N1C(CNc2cccc(C(=O)c3ccccc3)c2)CSC1c1cccnc1` (stereo not drawn) [Example 3, N-(3-benzoylphenyl)2-(3-pyridinyl)-3-tert-butoxycarbonylthiazolid-4-ylmethylamine] gave an inhibition constant (Ki) of 8700 nM.

On to `COc1cc(C(=O)c2cccc(NCC3CSC(c4cccnc4)N3C(=O)OC(C)(C)C)c2)cc(OC)c1OC` (single isomer, unassigned) [Example 1a], for which the affinity, expressed as Ki, was 6770 nM.

`COc1cc(C(=O)c2cccc(NC[C@H]3CC[C@@H](c4cccnc4)N3)c2)cc(OC)c1OC` (relative stereo) [13 (cis), N-[3-(3,4,5-trimethoxybenzoyl)phenyl][2-(3-pyridyl)-pyrrolidin-5-yl]methylamine] gave an inhibitory constant (Ki) of 2300 nM.

For `COc1cc(C(=O)c2cccc(NCC3CSC(c4cccnc4)N3C(=O)OC(C)(C)C)c2)cc(OC)c1OC` (single isomer, unassigned) [Example 1b], the Ki was 13000 nM.
